From article PMC8480901 (PLoS ONE, 2021)
“And” between values parts separate entries of the source, which are not always exact repeats. Identical values can stand only once.

Legend:
[1] = test system: IL-8–activated human neutrophils; test: Chemotaxis of IL-8–activated human neutrophils (transwell, CellTiter Glo); format: cell-based; settings: for IL-8–induced chemotaxis of human neutrophils: 0.03 to 30 μM; for Neutrophilic chemotaxis, RLU, Mean / Neutrophilic chemotaxis: % reduction / Neutrophilic chemotaxis, RLU, single replicates: IL-8
Text: Buffy coat (blood sample fraction comprising white blood cells and platelets) from whole blood was obtained from a healthy adult volunteer at the Croatian Institute of Transfusion Medicine (CITM; Zagreb, Croatia). The CITM ethics committee approved the blood collection process, and the volunteer provided written informed consent prior to blood collection. Neutrophils were isolated from the buffy coat, an aliquot of which was used for cell counting via hematologic analyzer (X500i; Sysmex). […] The diluted buffy coat was drawn into sterile 50-mL syringes and incubated for 30 minutes at RT. Following incubation, the upper layer of leukocyte-rich plasma (35 mL) was decanted into a new sterile 50-mL conical centrifuge tube, carefully layered onto 15 mL of Lymphoprep (Axis-Shield Diagnostics, Ltd., Dundee, UK) and centrifuged at 400×g (brake turned off) for 35 minutes at RT. The supernatant and mononuclear ring were discarded, and the pellet was resuspended in 10 mL of cold sterile MilliQ water. […] Resuspended neutrophils were counted via Sysmex X500i hematologic analyzer.
All test compounds were reconstituted in DMSO (Sigma-Aldrich Chemie GmbH) to 100-mM stock concentrations, taking into consideration and correcting for salt and purity. A 30-mM stock solution of reference compound Sch527123 (MedChemExpress, Monmouth Junction, NJ, USA) was diluted to 10 mM with DMSO.
DMSO was used as vehicle. […] The reference compound was tested at concentrations of 0.003, 0.01, 0.03, 0.1, 0.3, 1, 3, and 10 μM. All compounds were tested in triplicate, and the final DMSO concentration was 0.1% per well.
Test and reference compound working solutions were then added (20 μL/well) for a 10-fold dilution to final testing concentrations. Compounds and cells were mixed by gentle pipetting, and the plate was pre-incubated for 30 minutes at RT with gentle mixing by pipetting.
Negative control wells received 180 μL of migration medium alone. To all wells, 20 μL of compound working solutions or DMSO vehicle was added. Once pre-incubation of cells with compounds was complete, the transwell inserts were carefully placed on the receiver plate, with caution to avoid air bubble formation, which could prevent cell migration. To the upper wells, 75 μL of cell suspension (375,000 cells/well) was added, taking care not to tear the membrane with pipette tips.
After incubation, the number of cells that migrated to the lower wells was quantified by removing the Transwell insert and adding 200 μL of CellTiter Glo reagent (CellTiter-Glo Luminescent Cell Viability Assay, Promega, Madison, WI, USA) to each lower well to quantify the amount of adenosine triphosphate (ATP) present, signaling the presence of metabolically active cells. The plate was incubated for 10 minutes in the dark at RT, followed by transferring 150 μL of solution into wells of a white 96-well plate (Lumitrac 200; Greiner Bio-One International GmbH, Kremsmunster, Austria).
For the chemotaxis and cytotoxicity evaluations, average relative light unit values were calculated from all untreated vehicle samples and, for each sample, percentage of vehicle value was calculated. The tested compound was considered cytotoxic if reduction from untreated vehicle was ≥20%.

[2] = test system: J774.2 mouse macrophages; test: Cytotoxicity in J774.2 mouse macrophages (adenylate kinase release, ToxiLight); format: cell-based; settings: for cell viability: J774.2 cells; for fold-change of adenylate kinase release at test concentration vs vehicle control, Mean ± SEM: J774.2 mouse macrophages, n=2
Experimental: The effect of t est compounds on cell viabilit y of J 774.2 macrophages and human PBMCs […]
was determined b y comp aring th e aden yl ate kinas e signal obtain ed in the p resence of diff er ent concentrations of compounds with those obtained in DMSO (vehicle) control. Signals were […]
divided,and the results were ex pressed as fold-change versus v ehicle con trol .

SMILES	IL-8–induced chemotaxis of human neutrophils [1]	Neutrophilic chemotaxis, RLU, Mean ([1]; 0.03 µM) [RLU]	Neutrophilic chemotaxis: % reduction ([1]; 0.03 µM) [%]	Neutrophilic chemotaxis, RLU, Mean ([1]; 0.1 µM) [RLU]	Neutrophilic chemotaxis: % reduction ([1]; 0.1 µM) [%]	Neutrophilic chemotaxis, RLU, Mean ([1]; 0.3 µM) [RLU]	Neutrophilic chemotaxis, RLU, Mean ([1]; 1 µM) [RLU]	Neutrophilic chemotaxis: % reduction ([1]; 1 µM) [%]	Neutrophilic chemotaxis, RLU, Mean ([1]; 3 µM) [RLU]	Neutrophilic chemotaxis: % reduction ([1]; 3 µM) [%]	Neutrophilic chemotaxis, RLU, Mean ([1]; 10 µM) [RLU]	Neutrophilic chemotaxis: % reduction ([1]; 10 µM) [%]	Neutrophilic chemotaxis, RLU, Mean ([1]; 30 µM) [RLU]	Neutrophilic chemotaxis: % reduction ([1]; 30 µM) [%]	Neutrophilic chemotaxis, RLU, Mean ([1]; 100 µM) [RLU]	Neutrophilic chemotaxis: % reduction ([1]; 100 µM) [%]	cell viability ([2]; 100 μM)	other results
C=C[C@]1(C)C[C@@H](OC(=O)CS[C@@H]2CC[C@@H](N)C[C@H]2O)[C@]2(C)[C@H](C)CC[C@]3(CCC(=O)[C@H]32)[C@@H](C)[C@@H]1O [Lefamulin]	no effect	133060	-0.0452	130347	2.26	132827	128693	3.66	129147	3.27	129213	3.22	118747	12	73307	51	reduced	Neutrophilic chemotaxis, RLU, single replicates ([1]; 0.03 µM, listed as Lef): 133000 RLU and 133120 RLU; Neutrophilic chemotaxis, RLU, single replicates ([1]; 0.1 µM, listed as Lef): 131200 RLU and 127720 RLU and 132120 RLU; Neutrophilic chemotaxis: % reduction ([1]; 0.3 µM): 0.153%; Neutrophilic chemotaxis, RLU, single replicates ([1]; 0.3 µM, listed as Lef): 128480 RLU and 128040 RLU and 141960 RLU; Neutrophilic chemotaxis, RLU, single replicates ([1]; 1 µM, listed as Lef): 129760 RLU and 127360 RLU and 128960 RLU; Neutrophilic chemotaxis, RLU, single replicates ([1]; 3 µM, listed as Lef): 127920 RLU and 125520 RLU and 134000 RLU; Neutrophilic chemotaxis, RLU, single replicates ([1]; 10 µM, listed as Lef): 122760 RLU and 130480 RLU and 134400 RLU; Neutrophilic chemotaxis, RLU, single replicates ([1]; 30 µM, listed as Lef): 115000 RLU and 125400 RLU and 115840 RLU; Neutrophilic chemotaxis, RLU, single replicates ([1]; 100 µM, listed as Lef): 81720 RLU and 76640 RLU and 61560 RLU; cell viability ([2]; 30 μM): reduced; fold-change of adenylate kinase release at test concentration vs vehicle control, Mean ± SEM ([2]; 0.03 µM): 1.33 ± 0.11 fold-change; fold-change of adenylate kinase release at test concentration vs vehicle control, Mean ± SEM ([2]; 0.1 µM): 1.27 ± 0.23 fold-change; fold-change of adenylate kinase release at test concentration vs vehicle control, Mean ± SEM ([2]; 0.3 µM): 1.10 ± 0.16 fold-change; fold-change of adenylate kinase release at test concentration vs vehicle control, Mean ± SEM ([2]; 1 µM): 0.89 ± 0.08 fold-change; fold-change of adenylate kinase release at test concentration vs vehicle control, Mean ± SEM ([2]; 3 µM): 1.12 ± 0.18 fold-change; fold-change of adenylate kinase release at test concentration vs vehicle control, Mean ± SEM ([2]; 10 µM): 1.26 ± 0.27 fold-change; fold-change of adenylate kinase release at test concentration vs vehicle control, Mean ± SEM ([2]; 30 µM): 2.00 ± 0.13 fold-change; fold-change of adenylate kinase release at test concentration vs vehicle control, Mean ± SEM ([2]; 100 µM): 6.18 ± 0.05 fold-change
CC[C@H]1OC(=O)[C@H](C)[C@@H](O[C@H]2C[C@@](C)(OC)[C@@H](O)[C@H](C)O2)[C@H](C)[C@@H](O[C@@H]2O[C@H](C)C[C@H](N(C)C)[C@H]2O)[C@](C)(O)C[C@@H](C)CN(C)[C@H](C)[C@@H](O)[C@]1(C)O [Azithromycin]	no effect	121773	10	122140	9	131533	117320	13	121787	9.51	120227	11	136440	-3	142040	-8	reduced	Neutrophilic chemotaxis, RLU, single replicates ([1]; 0.03 µM, listed as Azi): 113920 RLU and 126240 RLU; Neutrophilic chemotaxis, RLU, single replicates ([1]; 0.1 µM, listed as Azi): 121960 RLU and 122320 RLU; Neutrophilic chemotaxis, RLU, single replicates ([1]; 0.3 µM, listed as Azi): 126760 RLU and 132240 RLU and 135600 RLU; Neutrophilic chemotaxis, RLU, single replicates ([1]; 1 µM, listed as Azi): 120320 RLU and 118720 RLU and 112920 RLU; Neutrophilic chemotaxis, RLU, single replicates ([1]; 3 µM, listed as Azi): 127280 RLU and 119280 RLU and 118800 RLU; Neutrophilic chemotaxis, RLU, single replicates ([1]; 10 µM, listed as Azi): 119960 RLU and 123240 RLU and 117480 RLU; Neutrophilic chemotaxis, RLU, single replicates ([1]; 30 µM, listed as Azi): 143280 RLU and 148320 RLU and 117720 RLU; Neutrophilic chemotaxis, RLU, single replicates ([1]; 100 µM, listed as Azi): 140160 RLU and 151960 RLU and 134000 RLU
